In one test the test system is THP-1 cells. As to the kind of experiment: MCP-1 induced THP-1 cell migration (Transwell) assay. Format: cell-based, human. Particulars: for "Classical" : "BSCI" potency ratio Human: Table 3, THP-1 migration ED50 versus Panc-2H4 insulin suppression ED50. The method, then:
Leukocyte migration was measured using the 96-well format micro Transwell^RTM assay system from Neuroprobe (Gaithersburg, MD, USA). In principle, this assay consists of two chambers separated by a porous membrane. The chemoattractant is placed in the lower compartment and the cells are placed in the upper compartment. After incubation for a period at 37°C the cells move towards the chemoattractant, and the number of cells in the lower compartment is proportional to the chemoattractant activity (relative to a series of controls).
The method was performed essentially as previously described (Reckless & Grainger (1999) Biochem. J. 340:803-11).
First, the cell suspension to be placed in the upper compartment was prepared. The THP-1 cells were pelleted by centrifugation (770 x g; 4 mins) and washed with Geys Balanced Salt Solution with 1mg/ml BSA (GBSS + BSA). This wash was then repeated, and the cells re-pelleted before being resuspended in a small volume of GBSS + BSA for counting, for example using a standard haemocytometer.
The volume of GBSS + BSA was then adjusted depending on the number of cells present so that the cells were at final density of 4.45 x 10^6 cells per ml of GBSS + BSA. This ensured that there were 100,000 THP-1 cells in each 25µl of the solution to be placed in the upper chamber of the plate.
The suspension of THP-1 cells at 4.45 x 10^6 cells/ml was divided into three pots. To one pot the BSCI was added at an appropriate final concentration, in an appropriate vehicle (for example (S)- 3-(2',2'-dimethylpropanoylamino)-tetrahydropyridin-2-one was added at 1nM from a stock solution in GBSS). To the second pot, the BSCI was added at the same concentration as in the first pot, but additionally the sstr2 antagonist was also added (for example BIM 23454 [Tulipano et al. (2002) 143:1218-24] or BIM 23627 were added at 66nM final concentration from a stock solution in GBSS). To the third pot, GBSS + BSA plus vehicle as appropriate was added so that the volumes in three pots are equal, acting as a control.
Next, the chemoattractant solution to be placed in the lower compartment was prepared. […]. Note that, as recommended by Frow et al (Med. Res. Rev. 24:276-98) this is the concentration of MCP-1 which induces maximal migration in this system. This solution was divided into three pots, as for the cell suspension. To one pot, the BSCI was added to the same final concentration as was added to the cell suspension, in the second pot the BSCI and the sstr2 antagonist were both added at the same concentration as previously added to the cell suspension, while to the remaining pot GBSS + BSA plus vehicle as appropriate was added so that the volumes in the three pots were equal. Note that the volume of liquid that needs to be added to make the addition of the BSCI and the sstr2 antagonist compounds needs to be taken into account, when establishing the final concentration of MCP-1 in the solution for the lower compartment and the final concentration of cells in the upper compartment.
Once the chemoattractant solutions for the lower wells and cell solutions for the upper chambers were prepared, the migration chamber was assembled. 29 µl of the appropriate chemoattractant solution was placed into the lower well of the chamber. Assays were performed with at least triplicate determinations of each condition. Once all the lower chambers were filled, the porous membrane was applied to the chamber in accordance with the manufacturer's instructions. Finally, 25 µl of the appropriate cell solution was applied to each upper chamber. A plastic lid was placed over the entire apparatus to prevent evaporation.
The assembled chamber was incubated at 37 °C, 5% CO2, for 2 hours. A suspension of cells in GBSS + BSA was also incubated under identical conditions in a tube: these cells were used to construct a standard curve for determining the number of cells that migrated to the lower chamber under each condition. […]

A further test deals with Panc-2H4. As to the kind of experiment: Human Panc-2H4 insulin suppression assay. It is filed as cell-based. From the text: (§1) Two different assays for "classical" sstr2 functions were adopted: (1) cultured foetal rat pituitary cells secreted growth hormone which is inhibited by sstr2 agonists in a dose-dependent fashion and (2) selected glucose-sensitive sub-clones of the human Panc-1 cell line secrete insulin which is inhibited by sstr2 agonists in a dose-dependent fashion.
Glucose-sensitive sub-clones of the human Panc-1, a cell line derived from a pleiomorphic epithelioid carcinoma of the exocrine pancreas, were obtained essentially as described by Hamil et al. (2008) Biomed. Sci. Instrum. 44:441-6. Briefly, Panc-1 cells were subcultured in 24 well plates, and the medium was supplemented with an additional 5% glucose. […] The resulting sub-lines were then tested for glucose sensitivity by preparing wells of a 96-well plate (5 x 10^4 cells per well) which were then exposed to cultured medium containing a range of glucose concentrations (low glucose DMEM, DMEM, DMEM + 1% glucose, DMEM ± 2.5% glucose and DMEM + 5% glucose). After 24hrs incubation, the conditioned medium was collected and assayed for insulin secretion by ELISA (Linco; cat# EZHI-14K) in accordance with the manufacturer's instructions. […] Further 96 well plates were prepared using Panc-2H4 (5 x 10^4 cells per well) in DMEM. After 24hrs, the medium was switched to DMEM + 5% glucose containing various test agents at various concentrations (triplicate wells per condition). After a further 24hrs, the conditioned medium was harvested and the concentration of insulin was determined by ELISA as described above.
(§2) Results were reported as the mean ± SD, expressed as the fold change from cells in the presence of vehicle only.

Test [1] has as its target type 2 somatostatin receptor (sstr2), human (human) (UniProt P30874). As to the kind of experiment: cell-based or functional assay.
The target in a further test is sstr2 (Homo sapiens, UniProt P30874). As to the kind of experiment: [3H]-BN83250 equilibrium binding to THP-1 cells.
Chain of sstr2 (P30874 whole entry): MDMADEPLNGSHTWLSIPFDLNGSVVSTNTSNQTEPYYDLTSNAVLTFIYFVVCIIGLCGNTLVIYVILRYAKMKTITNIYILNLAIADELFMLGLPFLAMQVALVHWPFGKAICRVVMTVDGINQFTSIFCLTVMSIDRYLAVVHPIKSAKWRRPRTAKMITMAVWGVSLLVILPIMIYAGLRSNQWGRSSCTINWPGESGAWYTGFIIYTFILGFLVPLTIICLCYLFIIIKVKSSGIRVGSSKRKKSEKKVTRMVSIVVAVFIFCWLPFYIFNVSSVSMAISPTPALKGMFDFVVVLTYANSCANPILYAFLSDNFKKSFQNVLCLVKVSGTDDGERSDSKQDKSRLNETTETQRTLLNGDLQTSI
In test [2] the test system is rat peripheral blood leukocytes. In words: Rat chemokine-induced PBMC migration assay. Format: cell-based.
The next test relates to fetal rat pituicytes. As to the kind of experiment: Rat pituicyte GH suppression assay. It is filed as cell-based. The following applies: for EC50: Table 3, read-out: Rat pituicyte GH suppression assay ED50.
Excerpt: as §1
Methods: Cultures of fetal rat pituicytes were established exactly as previously described (Murray et al. (2004) J. Clin. Endocrinol. Metab. 89:3027-32) by enzymatic dispersion. After 48hrs in low glucose DMEM plus 10% FCS, cells in 48 well plates (5 x 10^4 cells per well) were washed for 4hrs in serum-free DMEM and then incubated with test agents at various concentrations for a further 24hrs in serum-free DMEM. At the end of this period, the conditioned medium was harvested, any cell debris removed by centrifugation and assayed for GH using a commercially available ELISA (Linco; cat# EZRMGH-45K) in accordance with the manufacturer's instructions.
as §2

Where [3] appears, read: Table 4, 0.01nM to 1,000nM in DMSO vehicle, read-out: Chemokine-induced THP-1 cell migration assay ("BSCI" target) ED50.
Where [4] appears, read: Table 4, 0.01nM to 1,000nM in DMSO vehicle, read-out: Panc-2H4 insulin suppression assay ("classical" target) ED50.
The mark [5] stands for this setting: Table 4, THP-1 migration ED50 versus insulin suppression ED50.
Setting [6] is: Table 3, percentage suppression compared to vehicle.

Where two headings read alike, the source gives them in different places. Where only a bound is given, the exact number is not on record here.

Consider `CC(=O)NC(CC(N)=O)C(=O)NC(C(=O)NCC1CCCC(CN)C1)C(C)c1c[nH]c2ccccc12` (mixture of isomers) [D], for which the “Chemokine-induced THP-1 cell migration assay ("BSCI" target) Max Effect (%)” value in the test with THP-1 cells (Table 4) was less than 10%. In addition, the results for the EC50 in the test on THP-1 cells (setting [3]) and in the test on Panc-2H4 (setting [4]) were more than 1000 nM and 650 nM, respectively. In addition, the “Panc-2H4 insulin suppression assay ("classical" target) Max Effect (%)” value with Panc-2H4 (Table 4) is 37%.
For the molecule `CC(c1c[nH]c2ccccc12)C(NC(=O)N1CCC(NC(N)=O)CC1)C(=O)NCC1CCCC(CN)C1` (centres unmarked) [Compound A], in the test on THP-1 cells (setting [3]), the EC50 was more than 1000 nM.
On to “somatostatin-28 (from UniProt P61278 89-116) (peptide)”, for which, in test [1], the "Classical" : "BSCI" potency ratio, Human amounted to 6; the ED50 for inhibition of MCP-1 induced THP-1 cell migration was 0.9 nM; the Human Panc-2H4 insulin suppression assay, ED50 is 0.14 nM; the Human chemokine-induced THP-1 migration assay, ED50 turned out to be 0.9 nM.
In test [1], cortistatin (peptide) showed an ED50 for inhibition of MCP-1 induced THP-1 cell migration of 75 nM.
Regarding `CC1(C(=O)N[C@H]2CCCCNC2=O)CCCCC1` [(S)-3-(1'-methylcyclohexyl-1'-carbonylamino)-caprolactam], the “competition with BN83250 binding to sstr2 (in words)” value at sstr2 is “also compete with BN83250 binding to sstr2 to a similar extent”.
`CC(c1c[nH]c2ccccc12)C(NC(=O)NC1CCCNC1=O)C(=O)NCC1CCCC(CN)C1` (centres unmarked) [Compound C]: the “Chemokine-induced THP-1 cell migration assay ("BSCI" target) Max Effect (%)” value in the test on THP-1 cells (Table 4) stood at 100%. In addition, the EC50 with THP-1 cells (setting [3]) was found to be 2 nM; with Panc-2H4 (setting [4]), 82 nM. Besides, the RATIO with THP-1 cells (setting [5]) is on record as 0.02. Moreover, in the test on Panc-2H4 (Table 4), the “Panc-2H4 insulin suppression assay ("classical" target) Max Effect (%)” value is on record as 56%.
`NCC1CCCC(CNC(=O)C(Cc2ccccc2)NC(=O)N2CCC(n3c(=O)[nH]c4ccccc43)CC2)C1` (centres unmarked) [F]: the “Chemokine-induced THP-1 cell migration assay ("BSCI" target) Max Effect (%)” value in the test on THP-1 cells (Table 4) is reported as less than 10%. Also, the EC50 with THP-1 cells (setting [3]) and in the test with Panc-2H4 (setting [4]) was more than 1000 nM in each case. Moreover, in the test with Panc-2H4 (Table 4), the “Panc-2H4 insulin suppression assay ("classical" target) Max Effect (%)” value is recorded as less than 10%.
On to `CC(=O)NC(=O)C(NC(=O)N1CCC(n2c(=O)[nH]c3ccccc32)CC1)C(C)c1c[nH]c2ccccc12` (centres unmarked) [Compound E], for which the “Chemokine-induced THP-1 cell migration assay ("BSCI" target) Max Effect (%)” value in the test on THP-1 cells (Table 4) is given as less than 10%. Also, the EC50 in the test with THP-1 cells (setting [3]) and with Panc-2H4 (setting [4]) was more than 1000 nM each time. Besides, the “Panc-2H4 insulin suppression assay ("classical" target) Max Effect (%)” value in the test with Panc-2H4 (Table 4) is reported as less than 10%.
`CC(c1c[nH]c2ccccc12)C(NC(=O)N1CC(=O)NC(=O)C1)C(=O)NCC1CCCC(CN)C1` (centres unmarked) [Compound B]: in the test on THP-1 cells (Table 4), the “Chemokine-induced THP-1 cell migration assay ("BSCI" target) Max Effect (%)” value is reported as 100%. Besides, the results for the EC50 in the test on THP-1 cells (setting [3]) and with Panc-2H4 (setting [4]) were 220 nM and 167 nM, respectively. For the same molecule, the RATIO in the test with THP-1 cells (setting [5]) stood at 1.3. The “Panc-2H4 insulin suppression assay ("classical" target) Max Effect (%)” value in the test with Panc-2H4 (Table 4) is given as 52%.
For the molecule `O=C1NCCCC[C@@H]1NC(=O)C12CC3CC(CC(C3)C1)C2` [BN83470, (S)-3-(admantane-1'-carbonylamino)-caprolactam], the EC50 with THP-1 cells (Homo sapiens, THP-1, Table 3, read-out: Human chemokine-induced THP-1 migration assay ED50) was 0.08 nM; in test [2] (Rattus norvegicus, Leukocyte, Table 3, read-out: Rat chemokine-induced PBMC migration assay ED50) it was 0.22 nM; in the test with fetal rat pituicytes (Rattus norvegicus) it was 270 nM. In addition, the Emax in the test on THP-1 cells (Homo sapiens, THP-1, Table 3, read-out: Human chemokine-induced THP-1 migration assay Max effect (%)) was 100%; in the test on Panc-2H4 (Homo sapiens, Table 3, percentage suppression compared to vehicle, read-out: Human Panc-2H4 insulin suppression assay Max effect (%)), less than 10%; in test [2] (Rattus norvegicus, Leukocyte, Table 3, read-out: Rat chemokine-induced PBMC migration assay Max effect (%)), 100%; in the test with fetal rat pituicytes (Rattus norvegicus, Table 3, percentage suppression compared to vehicle, read-out: Rat pituicyte GH suppression assay Max effect (%)) it was 56%. The “"Classical" : "BSCI" potency ratio Human” value in the test with THP-1 cells is less than 0.00008. Moreover, the “"Classical" : "BSCI" potency ratio Rat” value in test [2] (Table 3, rat PBMC migration ED50 versus rat pituicyte GH suppression ED50) was 0.0008. Further, at sstr2, the “competition with BN83250 binding to sstr2 (in words)” value is given as “also compete with BN83250 binding to sstr2 to a similar extent”.
`C[C@@H](c1c[nH]c2ccccc12)[C@@H](NC(=O)N1CCC(n2c(=O)[nH]c3ccccc32)CC1)C(=O)NC[C@@H]1CCC[C@H](CN)C1` [L-779,976]: in the test on THP-1 cells (Table 3), the “Human chemokine-induced THP-1 migration assay Max effect (%)” value is 65%. In the test with THP-1 cells, the “"Classical" : "BSCI" potency ratio Human” value was 27. The EC50 in the test on THP-1 cells (Table 3, read-out: Human chemokine-induced THP-1 migration assay ED50) stood at 450 nM; in the test on THP-1 cells (setting [3]), 450 nM; in the test with THP-1 cells (Table 5, library screening hits, read-out: Chemokine-induced THP-1 cell migration assay ("BSCI" target) ED50), 450 nM; in the test with Panc-2H4 (Table 3, read-out: Human Panc-2H4 insulin suppression assay ED50), 17 nM; in the test with Panc-2H4 (setting [4]), 17 nM; in the test on Panc-2H4 (Table 5, library screening hits, read-out: Panc-2H4 insulin suppression assay ("classical" target) ED50) it was 17 nM. Besides, the EC50 in the test on fetal rat pituicytes worked out at 2.9 nM. Further, the “Chemokine-induced THP-1 cell migration assay ("BSCI" target) Max Effect (%)” value in the test with THP-1 cells (Table 4) and with THP-1 cells (Table 5) was 65% in each case. Besides, the RATIO is reported as 26.5 in the test with THP-1 cells (setting [5]) and 26.5 with THP-1 cells (Table 5, THP-1 migration ED50 versus insulin suppression ED50). In addition, the “Human Panc-2H4 insulin suppression assay Max effect (%)” value in the test with Panc-2H4 (setting [6]) stood at 40%. Besides, the “Panc-2H4 insulin suppression assay ("classical" target) Max Effect (%)” value with Panc-2H4 (Table 4) and in the test on Panc-2H4 (Table 5) was 40% each time. The “Rat pituicyte GH suppression assay Max effect (%)” value with fetal rat pituicytes (setting [6]) is 55%.

The values above are taken from EP2401611B1, “IMPROVED METHODS FOR IDENTIFICATION” (Cambridge Enterprise Limited, priority 2009, dated 2010).
